Data taken from patent US11345669B2, “Urea derivatives and methods of use thereof” (NodThera Limited, priority 2017, dated 2022).

These molecules were tested on IL1-β release upon NLRP3 activation in peripheral blood mononuclear cells (PBMC) (assay: PBMC IC50 Determination Assay). Conditions: Homo sapiens, PBMC, read-out: PBMCs, IC50, μM.
Type: cell-based
Protocol: PBMC IC50 Determination Assay
The compounds of the present disclosure were tested for their inhibitory activity against IL1-β release upon NLRP3 activation in peripheral blood mononuclear cells (PBMC).
Isolated cells were seeded into the wells of a 96-well plate and incubated for 3 h with lipopolysaccharide (LPS). Following medium exchange, the compounds of the present disclosure were added (a single compound per well) and the cells were incubated for 30 min. Next, the cells were stimulated either with ATP (5 mM) or nigericin (10 μM) for 1 h and the cell culture media from the wells were collected for further analysis.
The release of IL-1β into the media was determined by a quantitative detection of IL-1β in 5 the media using an IL-1β enzyme-linked immunosorbent assay (ELISA) Ready-SET-Go!, eBioscience cat. […] Subsequently, plates were blocked with blocking buffer for 1 h at room temperature (rt) and after washing with a buffer (PBS with 0.05% Tween-20) incubated with protein standard and culture media. […] Plates were washed and incubated with HRP-streptavidin for 30 min at rt and washed again. The signal was developed after addition of 3,39,S,59-tetramethylbenzidine-peroxidase (TMB) until color appeared and the reaction was stopped by 2 M H2SO4. A microplate spectrophotometer (BioTek) was used to detect signals with 450 nm. The detection range of IL-1β ELISA was […].
In the case of COC(=O)C(Cc1cnn(C)c1)NC(=O)Nc1c2c(cc3c1CCC3)CCC2 (stereo not shown) [Example 2Q, Methyl 2-{[(1,2,3,5,6,7-hexahydro-s-indacen-4-yl)carbamoyl]amino}-3-(1-methyl-1H-pyrazol-4-yl)propanoate], the IC50 is reported as 2.4 µM. COC(=O)CC[C@@H](NC(=O)Nc1c2c(cc3c1CCC3)CCC2)C(=O)OC [Example 2S, 1,5-dimethyl(2R)-2-{[(1,2,3,5,6,7-hexahydro-s-indacen-4-yl)carbamoyl]amino}pentanedioate] gave an IC50 of 3.5 µM. Work on CCOC(=O)CNC(=O)Nc1cc2c(c3c1CCCC3)CCC2 [Example 2T, Ethyl 2-[({1H,2H,3H,6H,7H,8H,9H-cyclopenta[a]naphthalen-5-yl}carbamoyl)amino] acetate] yielded an IC50 of 3.1 µM.

Same assay, conditions: Homo sapiens; PBMC from buffy coats, LPS 3 h, compound 30 min, then ATP (5 mM) or nigericin (10 μM) for 1 h; IL-1β in media by ELISA; read-out: PBMCs, IC50
Work on COC(=O)[C@@H](Cc1cccc(-c2cc[nH]n2)c1)NC(=O)Nc1c2c(cc3c1CCC3)CCC2 [Example 2L, Methyl (2R)-2-{[(1,2,3,5,6,7-hexahydro-s-indacen-4-yl)carbamoyl]amino}-3-[3-(1H-pyrazol-3-yl)phenyl]propanoate] yielded an IC50 of 0.14 µM. Molecule O=C(Nc1c2c(cc3c1CCC3)CCC2)N[C@H](Cc1cccnc1)C(=O)O [Example 2LL, (2R)-2-{[(1,2,3,5,6,7-hexahydro-s-indacen-4-yl)carbamoyl]amino}-3-(pyridin-3-yl)propanoic acid] has an IC50 of 2 µM. In the case of COC(=O)[C@@H](Cc1cccc(CO)c1)NC(=O)Nc1c2c(cc3c1CCC3)CCC2 [Example 2M, Methyl(2R)-2-{[(1,2,3,5,6,7-hexahydro-s-indacen-4-yl)carbamoyl]amino}-3-[3-(hydroxymethyl)phenyl]propanoate], the IC50 is reported as 0.38 µM. COCCOC(=O)[C@@H](Cc1cccnc1)NC(=O)Nc1c2c(cc3c1CCC3)CCC2 [Example 2MM, 2-methoxyethyl(2R)-2-{[(1,2,3,5,6,7-hexahydro-s-indacen-4-yl)carbamoyl]amino}-3-(pyridin-3-yl)propanoate] was tested, and the IC50 was 2.9 µM. Work on COC(=O)[C@@H](CN)NC(=O)Nc1c2c(cc3c1CCC3)CCC2 [Example 2N, Methyl(2R)-3-amino-2-{[(1,2,3,5,6,7-hexahydro-s-indacen-4-yl)carbamoyl]amino}propanoate] yielded an IC50 of 9.3 µM. Molecule O=C(Nc1c2c(cc3c1CCC3)CCC2)N[C@H](Cc1cccnc1)C(=O)OC1CCC1 [Example 2NN, cyclobutyl (2R)-2-{[(1,2,3,5,6,7-hexahydro-s-indacen-4-yl)carbamoyl]amino}-3-(pyridin-3-yl)propanoate] has an IC50 of 0.6 µM. COC(=O)[C@@H](CCSC)NC(=O)Nc1c2c(cc3c1CCC3)CCC2 [Example 2O, Methyl(2R)-2-{[(1,2,3,5,6,7-hexahydro-s-indacen-4-yl)carbamoyl]amino}-4-(methylsulfanyl)butanoate] was tested, and the IC50 was 3.2 µM. Work on O=C(Nc1c2c(cc3c1CCC3)CCC2)N[C@H](Cc1cccnc1)C(=O)OCC1CC1 [Example 2OO, cyclopropylmethyl(2R)-2-{[(1,2,3,5,6,7-hexahydro-s-indacen-4-yl)carbamoyl]amino}-3-(pyridin-3-yl)propanoate] yielded an IC50 of 0.47 µM. Molecule COC(=O)[C@@H](Cc1cccc(NC(C)=O)c1)NC(=O)Nc1c2c(cc3c1CCC3)CCC2 [Example 2P, Methyl(2R)-3-(3-acetamidophenyl)-2-{[(1,2,3,5,6,7-hexahydro-s-indacen-4-yl)carbamoyl]amino}propanoate] has an IC50 of 0.14 µM. With O=C(Nc1c2c(cc3c1CCC3)CCC2)N[C@H](Cc1cccnc1)C(=O)OC1CCCC1 [Example 2PP, cyclopentyl(2R)-2-{[(1,2,3,5,6,7-hexahydro-s-indacen-4-yl)carbamoyl]amino}-3-(pyridin-3-yl)propanoate] the IC50 was 0.24 µM. COC(=O)[C@@H](CC#N)NC(=O)Nc1c2c(cc3c1CCC3)CCC2 [Example 2QQ, methyl(2R)-3-cyano-2-{[(1,2,3,5,6,7-hexahydro-s-indacen-4yl)carbamoyl]amino}propanoate] was tested, and the IC50 was under 10 µM. In the case of COC(=O)[C@@H](Cc1cccc(N2CCCC2=O)c1)NC(=O)Nc1c2c(cc3c1CCC3)CCC2 [Example 2R, Methyl(2R)-2-{[(1,2,3,5,6,7-hexahydro-s-indacen-4-yl)carbamoyl]amino}-3-[3-(2-oxopyrrolidin-1-yl)phenyl]propanoate], the IC50 is reported as 0.33 µM. CCOC(=O)[C@@H](Cc1cccnc1)NC(=O)Nc1c2c(cc3c1CCC3)CCC2 [Example 2RR, ethyl(2R)-2-{[(1,2,3,5,6,7-hexahydro-s-indacen-4-yl)carbamoyl]amino}-3-(pyridin-3-yl)propanoate] was tested, and the IC50 was 1.7 µM. With O=C(Nc1c2c(cc3c1CCC3)CCC2)N[C@H](Cc1ccccc1)C(=O)O [Example 2SS, (2R)-2-{[(1,2,3,5,6,7-hexahydro-s-indacen-4-yl)carbamoyl]amino}-3-phenylpropanoic acid] the IC50 was 14 µM. COC(=O)C(Cn1cc(C)cn1)NC(=O)Nc1c2c(cc3c1CCC3)CCC2 (stereo not shown) [Example 2TT, Methyl 2-{[(1,2,3,5,6,7-hexahydro-s-indacen-4-yl)carbamoyl]amino}-3-(4-methyl-1H-pyrazol-1-yl)propanoate] gave an IC50 of 14 µM. With COC(=O)[C@@H](Cc1cccc(Nc2cc[nH]n2)c1)NC(=O)Nc1c2c(cc3c1CCC3)CCC2 [Example 2U, Methyl(2R)-2-{[(1,2,3,5,6,7-hexahydro-s-indacen-4-yl)carbamoyl]amino}-3-{3-[(1H-pyrazol-3-yl)amino]phenyl}propanoate] the IC50 was 0.31 µM. Molecule CCOC(=O)[C@@H](Cc1cccnc1)NC(=O)Nc1c(C(C)C)cccc1C(C)C [Example 2UU, Ethyl (2R)-2-({[2,6-bis(propan-2-yl)phenyl]carbamoyl}amino)-3-(pyridin-3-yl)propanoate] has an IC50 of 21 µM. Work on O=C(Nc1c2c(cc3c1CCC3)CCC2)N[C@H](Cc1cccc(-c2cc[nH]n2)c1)C(=O)O [Example 2V, (2R)-2-{[(1,2,3,5,6,7-hexahydro-s-indacen-4-yl)carbamoyl]amino}-3-[3-(1H-pyrazol-3-yl)phenyl]propanoic acid] yielded an IC50 of 0.52 µM. Work on COC(=O)C[C@@H](NC(=O)Nc1c2c(cc3c1CCC3)CCC2)C(=O)OC [Example 2W, 1,4-dimethyl(2R)-2-{[(1,2,3,5,6,7-hexahydro-s-indacen-4-yl)carbamoyl]amino}butanedioate] yielded an IC50 of 2.9 µM. For COC(=O)[C@@H](Cc1cncc(OC)c1)NC(=O)Nc1c2c(cc3c1CCC3)CCC2 [Example 2WW, Methyl (2R)-2-{[(1,2,3,5,6,7-hexahydro-s-indacen-4-yl)carbamoyl]amino}-3-(5-methoxypyridin-3-yl)propanoate], the IC50 was 0.45 µM. CCOC(=O)CNC(=O)Nc1c2c(cc3c1CCC3)CCC2 [Example 2X, ethyl 2-{[(1,2,3,5,6,7-hexahydro-s-indacen-4-yl)carbamoyl]amino}acetate] was tested, and the IC50 was 1.5 µM. Work on CCOC(=O)C(Cc1nc(C)no1)NC(=O)Nc1c2c(cc3c1CCC3)CCC2 (stereo not shown) [Example 2XX, Ethyl 2-{[(1,2,3,5,6,7-hexahydro-s-indacen-4-yl)carbamoyl]amino}-3-(3-methyl-1,2,4-oxadiazol-5-yl)propanoate] yielded an IC50 of 5.1 µM. COC(=O)[C@@H](Cc1cccnn1)NC(=O)Nc1c2c(cc3c1CCC3)CCC2 [Example 2YY, Methyl (2R)-2-{[(1,2,3,5,6,7-hexahydro-s-indacen-4-yl)carbamoyl]amino}-3-(pyridazin-3-yl)propanoate] showed an IC50 of 3.3 µM. Work on COC(=O)[C@@H](Cc1ccc(O)cc1)NC(=O)Nc1c2c(cc3c1CCC3)CCC2 [Example 2Z, methyl(2R)-2-{[(1,2,3,5,6,7-hexahydro-s-indacen-4-yl)carbamoyl]amino}-3-(4-hydroxyphenyl)propanoate] yielded an IC50 of 0.1 µM. CCOC(=O)C(Cc1cnoc1)NC(=O)Nc1c2c(cc3c1CCC3)CCC2 (stereo not shown) [Example 2ZZ, Ethyl 2-{[(1,2,3,5,6,7-hexahydro-s-indacen-4-yl)carbamoyl]amino}-3-(1,2-oxazol-4-yl)propanoate] was tested, and the IC50 was 3.3 µM.
